Test results: ChEMBL document CHEMBL1177643, “Synthesis, DNA-binding ability and anticancer activity of benzothiazole/benzoxazole-pyrrolo[2,1-c][1,4]benzodiazepine conjugates” (Bioorg Med Chem, 2010)

Tested on: Calf thymus DNA
Assay: Binding affinity to calf thymus duplex-form DNA assessed as melting temperature at 1:5 compound/DNA ratio after 18 hrs
Format: nucleic-acid assay
Conditions: Bos taurus

## COc1cc2c(cc1OCCCCCOc1ccc(-c3nc4ccccc4o3)cc1)N=C[C@@H]1CCCN1C2=O
  ΔTm: 4.3 °C
